Reference: US5624923A, “Tricyclic diazepine vasopressin antagonists and oxytocin antagonists” (priority 1995, dated 1997)
pIC50: −log10 of the molar value.

Legend:
Vasopressin V1 = Vasopressin V1 Antagonist Activity in Conscious Rats (vasopressin vasopressor response); format: in vivo, rat
Method in brief: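 Conscious rats are restrained supine, and under local 2% procaine a PE 10/20 cannula is passed through the ventral caudal tail artery into the lower abdominal aorta. The caudal vein is cannulated for intravenous dosing. Blood pressure is recorded with a Statham P23Db transducer, and vasopressin injections are repeated after compound dosing. Percent antagonism is calculated against the pre-drug vasopressor response taken as 100%.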

oxytocin receptors = target: T1, oxytocin receptors (Rattus norvegicus, UniProt P70536); experiment: Oxytocin Receptor Binding; details: for pIC50: 1.0 nM [3H]oxytocin
T1 construct: The uteri are dissected out, cleaned of fat and connective tissues; from tissue; host or cells: uterus of DES-treated female Sprague-Dawley rats
T1 sequence (P70536 1-388): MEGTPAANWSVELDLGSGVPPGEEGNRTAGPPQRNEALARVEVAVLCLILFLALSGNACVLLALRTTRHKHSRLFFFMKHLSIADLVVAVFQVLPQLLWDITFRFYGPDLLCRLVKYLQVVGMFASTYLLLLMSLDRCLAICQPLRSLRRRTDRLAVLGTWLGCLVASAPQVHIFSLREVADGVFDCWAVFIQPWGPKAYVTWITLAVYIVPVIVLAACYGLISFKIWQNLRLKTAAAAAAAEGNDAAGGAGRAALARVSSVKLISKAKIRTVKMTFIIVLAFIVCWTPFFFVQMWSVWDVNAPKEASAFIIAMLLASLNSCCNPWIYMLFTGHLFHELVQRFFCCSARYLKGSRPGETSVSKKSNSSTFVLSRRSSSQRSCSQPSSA
Method in brief: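 IC50 is the concentration displacing 50% of 1.0 nM [3H]OT, incubated 60 min at 22 °C in pH 7.4 Tris/MgCl2 buffer plus protease inhibitors, then filtered. Receptor source: uterine membranes from rats given 0.3 mg/kg DES i.m. 18 h earlier. 1.0 uM cold OT defined non-specific binding.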

Vasopressin V2 = Vasopressin V2 Antagonist Activity in Conscious Hydrated Rats; format: in vivo, rat; details: 10 mg/kg orally, AVP 0.4 μg/kg i.p.
Method in brief: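 Four-hour urine output, osmolality and electrolytes (Na+, K+, Cl−) recorded in water-loaded rats (30 mL/kg deionized water orally) given AVP i.p. at 0.4 μg/kg. Test compounds were given orally at 0.1–100 mg/kg 1 h before AVP; 2–4 rats per compound.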

Row | SMILES | Max. % Inhibition (Vasopressin V1; 30 mg/kg i.v.) | Time (of max. % inhibition) (Vasopressin V1; 30 mg/kg i.v.) | pIC50 (oxytocin receptors) | inhibition at 10 µM (oxytocin receptors; [3H]oxytocin) | Osmolality (Vasopressin V2) | Urine Volume (Vasopressin V2) | Max. % Inhibition (Vasopressin V1; 10 mg/kg i.v.) | Time (of max. % inhibition) (Vasopressin V1; 10 mg/kg i.v.) | Max. % Inhibition (Vasopressin V1; 30 mg/kg p.o.) | Time (of max. % inhibition) (Vasopressin V1; 30 mg/kg p.o.) | inhibition at 1.25 µM (oxytocin receptors; dose 1.25 μM, [3H]oxytocin)
1 | O=C(Nc1ccc(C(=O)N2Cc3cccn3Cc3ccccc32)c(Cl)c1)c1ccc(F)cc1Cl [Example 527, N-[4-(5H-pyrrolo[2,1-c][1,4]benzodiazepin-10(11H)-ylcarbonyl]-3-chlorophenyl]-4-fluoro-2-chlorobenzamide] | 85% | 180 min | 6.35 | 92% | 430 mOsm/kg | 19.5 ml/4 hrs | – | – | – | – | –
2 | Cc1cccc(NC(=O)c2ccc(C(=O)N3Cc4cccn4Cc4ccccc43)cc2)c1C [Example 485, N-(2,3-Dimethylphenyl)-4-(5H-pyrrolo[2,1-c][1,4]benzodiazepin-10(11H)-ylcarbonyl)benzamide] | 64% | 60 min | 5.66 | 86% | 961 mOsm/kg | 4 ml/4 hrs | – | – | – | – | –
3 | O=C(Nc1ccc(C(=O)N2Cc3ccnn3Cc3ccccc32)cc1)c1ccc(Cl)cc1Cl [Example 217, N-[4-(4H-Pyrazolo[5,1-c][1,4]benzo-diazepin-5(10H)-ylcarbonyl)phenyl]-2,4-dichlorobenzamide] | 57% | 90 min | 5.92 | 87% | 466 mOsm/kg | 14.3 ml/4 hrs | – | – | – | – | –
4 | Cc1ccccc1C(=O)Nc1ccc(C(=O)N2Cc3ccnn3Cc3ccccc32)cc1 [Example 210, N-[4-(4H-Pyrazolo[5,1-c][1,4]benzodiazepin-5(10H)-ylcarbonyl)phenyl]-2-methylbenzamide] | – | – | 5.40 | 64% | 451 mOsm/kg | 15.2 ml/4 hrs | 78% | 90 min | – | – | –
5 | COc1cc(C(=O)N2Cc3cccn3Cc3ccccc32)ccc1NC(=O)c1ccccc1C [Example 477, N-[4-(5H-pyrrolo[2,1-c][1,4]benzodiazepin-10(11H)-ylcarbonyl)-2-methoxy-phenyl]-2-methylbenzamide] | – | – | 7.54 | – | 701 mOsm/kg | 5.3 ml/4 hrs | 88% | 180 min | 82% | 30 min | 97%
